Results: ChEMBL document CHEMBL3865781, “Recent advances in the discovery and development of antibacterial agents targeting the cell-division protein FtsZ” (Bioorg Med Chem, 2016)
Values after ≈ are worked out from the molar mass of the structure shown.

Key:
[1] = Displacement of mant-GTP from Bacillus subtilis FtsZ by spectrofluorometric assay
Escherichia coli = assay: Antibacterial activity against Escherichia coli ATCC 25922 after 18 hrs by broth microdilution method; format: functional; conditions: ATCC 25922, 18 h
Staphylococcus aureus [2] = assay: Antibacterial activity against methicillin-resistant Staphylococcus aureus ATCC BAA-41 after 18 hrs by broth microdilution method; format: functional; conditions: ATCC BAA-41, 18 h
[3] = Inhibition of Escherichia coli FtsZ polymerization expressed in Escherichia coli BL21 assessed as reduction in light scattering intensity in presence of GTP by fluorescence spectrometric analysis
Enterococcus faecalis [4] = assay: Antimicrobial activity against vancomycin-resistant Enterococcus faecalis after 18 hrs by broth microdilution method; format: functional
Enterococcus faecalis [5] = assay: Antimicrobial activity against vancomycin-sensitive Enterococcus faecalis after 18 hrs by broth microdilution method; format: functional
Klebsiella pneumoniae = assay: Antibacterial activity against Klebsiella pneumoniae ATCC BAA-1144 after 18 hrs by broth microdilution method; format: functional; conditions: ATCC BAA-1144, 18 h
Staphylococcus aureus [6] = assay: Antibacterial activity against methicillin-sensitive Staphylococcus aureus after 18 hrs by broth microdilution method; format: functional
[7] = Inhibition of Escherichia coli FtsZ GTPase activity expressed in Escherichia coli BL21 preincubated for 5 mins followed by GTP addition after 15 mins by malachite green based spectrophotometric analysis
[8] = tested on: Mycobacterium tuberculosis; assay: Antibacterial activity against Mycobacterium tuberculosis H37Rv measured every 24 hrs for 7 days by MABA assay; format: functional
[9] = tested on: Mycobacterium tuberculosis; assay: Antibacterial activity against Mycobacterium tuberculosis NHN382 clinical isolates measured every 24 hrs for 7 days by MABA assay; format: functional
[10] = tested on: Mycobacterium tuberculosis; assay: Antibacterial activity against Mycobacterium tuberculosis TN587 clinical isolates measured every 24 hrs for 7 days by MABA assay; format: functional
[11] = tested on: Mycobacterium tuberculosis; assay: Antibacterial activity against Mycobacterium tuberculosis W210 clinical isolates measured every 24 hrs for 7 days by MABA assay; format: functional
[12] = tested on: Mycobacterium tuberculosis; assay: Antibacterial activity against Mycobacterium tuberculosis NHN20 clinical isolates measured every 24 hrs for 7 days by MABA assay; format: functional
[13] = tested on: Mycobacterium tuberculosis; assay: In vivo antibacterial activity against Mycobacterium tuberculosis str. Erdman infected in C57BL/6 mouse assessed as reduction in bacterial load in lungs at 50 mg/kg, ip bid on day 5 to 14 post infection measured on day 15 post infection; format: functional, Erdman = ATCC 35801
[14] = tested on: Mycobacterium tuberculosis; assay: In vivo antibacterial activity against Mycobacterium tuberculosis H37Rv infected in GKO-TB mouse assessed as reduction in bacterial load in spleen at 50 mg/kg, ip or po bid for 10 consecutive days; format: functional
[15] = tested on: Mycobacterium tuberculosis; assay: Antimycobacterial activity against Mycobacterium tuberculosis H37Rv after 2 weeks; format: functional; conditions: 336 h
[16] = target: T1, Cell division protein FtsZ (Staphylococcus aureus, UniProt P0A031); assay: Inhibition of Staphylococcus aureus N-terminal His6-tagged FtsZ GTPase activity expressed in Escherichia coli BL21(DE3) preincubated for 10 mins followed by GTP addition after 30 mins by cytophos phosphate assay
T1 sequence (P0A031 whole entry): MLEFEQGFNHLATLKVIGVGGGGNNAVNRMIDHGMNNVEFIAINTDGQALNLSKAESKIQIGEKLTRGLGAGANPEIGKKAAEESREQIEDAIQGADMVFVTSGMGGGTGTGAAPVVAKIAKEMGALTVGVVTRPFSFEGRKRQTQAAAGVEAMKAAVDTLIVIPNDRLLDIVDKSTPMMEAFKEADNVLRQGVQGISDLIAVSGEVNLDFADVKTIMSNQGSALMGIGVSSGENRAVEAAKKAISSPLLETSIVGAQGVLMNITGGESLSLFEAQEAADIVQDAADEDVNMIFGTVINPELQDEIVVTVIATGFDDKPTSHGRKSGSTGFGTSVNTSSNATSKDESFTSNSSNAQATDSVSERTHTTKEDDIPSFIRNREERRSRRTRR

For `O=C(Oc1cc(OC(=O)c2cccc(O)c2)cc(-c2ccccc2)c1)c1cccc(O)c1`, the Kd [1] was 0.5 µM.
In the case of `C=CCc1ccc(O)c(OC)c1` [EUGENOL], the MIC (Escherichia coli) is reported as 32 to 128 µg/mL (≈ 195 to 780 µM), the MIC (Staphylococcus aureus [2]) is reported as 2 to 8 µg/mL (≈ 12.2 to 48.7 µM) and the IC50 [3] is reported as greater than 250 µM. The MIC (Enterococcus faecalis [4]) was 4 to 16 µg/mL (≈ 24.4 to 97.4 µM), the MIC (Enterococcus faecalis [5]) was 4 to 16 µg/mL (≈ 24.4 to 97.4 µM) and the MIC (Klebsiella pneumoniae) was 32 to 128 µg/mL (≈ 195 to 780 µM). It also gave an MIC (Staphylococcus aureus [6]) of 2 to 8 µg/mL (≈ 12.2 to 48.7 µM).
Compound `O=c1ccc2ccc(O)c(O)c2o1` [DAPHNETIN] has an MIC (Escherichia coli) of 32 to 128 µg/mL (≈ 180 to 719 µM), an MIC (Staphylococcus aureus [2]) of 2 to 8 µg/mL (≈ 11.2 to 44.9 µM) and an IC50 [3] of 73 µM. The IC50 [7] was 57 µM, the MIC (Enterococcus faecalis [5]) was 4 to 16 µg/mL (≈ 22.5 to 89.8 µM) and the MIC (Klebsiella pneumoniae) was 32 to 128 µg/mL (≈ 180 to 719 µM). For the same compound, the MIC (Staphylococcus aureus [6]) was 2 to 8 µg/mL (≈ 11.2 to 44.9 µM).
In the case of `CN(C)c1cc2[nH]c(C3CCCCC3)nc2cc1NC(=O)c1ccc(C(F)(F)F)cc1F`, the MIC99 [8] is reported as 0.18 µg/mL (≈ 0.401 µM), the MIC99 [9] is reported as 0.16 µg/mL (≈ 0.357 µM) and the MIC99 [10] is reported as 0.24 µg/mL (≈ 0.535 µM). For the same compound, the MIC99 [11] was 0.31 µg/mL (≈ 0.691 µM), the MIC99 [12] was 0.16 µg/mL (≈ 0.357 µM) and the Activity [13] was 5.7 - 6.3 log10CFU. The Activity [14] was 3.9 - 5 log10CFU.
Work on `COc1cc2ccc(=O)oc2cc1O` [SCOPOLETIN] yielded an MIC (Escherichia coli) of 32 to 128 µg/mL (≈ 167 to 666 µM), an MIC (Staphylococcus aureus [2]) of 2 to 8 µg/mL (≈ 10.4 to 41.6 µM) and an IC50 [3] of 41 µM. It also gave an IC50 [7] of 23 µM, an MIC (Enterococcus faecalis [5]) of 4 to 16 µg/mL (≈ 20.8 to 83.3 µM) and an MIC (Klebsiella pneumoniae) of 32 to 128 µg/mL (≈ 167 to 666 µM). It also gave an MIC (Staphylococcus aureus [6]) of 2 to 8 µg/mL (≈ 10.4 to 41.6 µM) and an MIC [15] of 42 µg/mL (≈ 219 µM).
`O=c1ccc2ccccc2o1` [COUMARIN] showed an MIC (Escherichia coli) of 32 to 128 µg/mL (≈ 219 to 876 µM), an MIC (Staphylococcus aureus [2]) of 2 to 8 µg/mL (≈ 13.7 to 54.7 µM) and an MIC (Enterococcus faecalis [5]) of 4 to 16 µg/mL (≈ 27.4 to 109 µM). The MIC (Klebsiella pneumoniae) was 32 to 128 µg/mL (≈ 219 to 876 µM) and the MIC (Staphylococcus aureus [6]) was 2 to 8 µg/mL (≈ 13.7 to 54.7 µM).
In the case of `COc1cc(/C=C/C(=O)O)ccc1O` [FERULATE], the MIC (Escherichia coli) is reported as 32 to 128 µg/mL (≈ 165 to 659 µM), the MIC (Staphylococcus aureus [2]) is reported as 2 to 8 µg/mL (≈ 10.3 to 41.2 µM) and the MIC (Enterococcus faecalis [5]) is reported as 4 to 16 µg/mL (≈ 20.6 to 82.4 µM). The MIC (Klebsiella pneumoniae) was 32 to 128 µg/mL (≈ 165 to 659 µM) and the MIC (Staphylococcus aureus [6]) was 2 to 8 µg/mL (≈ 10.3 to 41.2 µM).
`COc1cc2cc3c4cc(-c5ccc(-c6ccccc6)cc5)c(OC)c(OC)c4cc[n+]3c(C(C)C)c2cc1OC` showed an MIC (Escherichia coli) of 32 to 128 µg/mL, an MIC (Staphylococcus aureus [2]) of 2 to 8 µg/mL and an MIC (Enterococcus faecalis [5]) of 4 to 16 µg/mL. It also gave an MIC (Klebsiella pneumoniae) of 32 to 128 µg/mL and an MIC (Staphylococcus aureus [6]) of 2 to 8 µg/mL.
With `O=C(/C=C/c1ccc(O)c(O)c1)O[C@@H]1C[C@](O)(C(=O)O)C[C@@H](O)[C@H]1O` [CHLOROGENIC ACID] the MIC (Escherichia coli) was 32 to 128 µg/mL (≈ 90.3 to 361 µM), the MIC (Staphylococcus aureus [2]) was 2 to 8 µg/mL (≈ 5.64 to 22.6 µM) and the IC50 [3] was 69.5 µM. For the same compound, the MIC (Enterococcus faecalis [5]) was 4 to 16 µg/mL (≈ 11.3 to 45.2 µM), the MIC (Klebsiella pneumoniae) was 32 to 128 µg/mL (≈ 90.3 to 361 µM) and the MIC (Staphylococcus aureus [6]) was 2 to 8 µg/mL (≈ 5.64 to 22.6 µM).
`CCc1ccc(C(=O)Nc2cc3nc(C4CCCCC4)[nH]c3cc2N(C)C)cc1` gave an MIC99 [8] of 0.16 µg/mL (≈ 0.41 µM), an MIC99 [9] of 0.16 µg/mL (≈ 0.41 µM) and an MIC99 [10] of 0.16 µg/mL (≈ 0.41 µM). It also gave an MIC99 [11] of 0.16 µg/mL (≈ 0.41 µM).
With `Oc1ccc(/C=C/c2cc(O)cc(O)c2)cc1` [RESVERATROL] the MIC (Escherichia coli) was 32 to 128 µg/mL (≈ 140 to 561 µM), the MIC (Staphylococcus aureus [2]) was 2 to 8 µg/mL (≈ 8.76 to 35 µM) and the MIC (Enterococcus faecalis [5]) was 4 to 16 µg/mL (≈ 17.5 to 70.1 µM). For the same compound, the MIC (Klebsiella pneumoniae) was 32 to 128 µg/mL (≈ 140 to 561 µM) and the MIC (Staphylococcus aureus [6]) was 2 to 8 µg/mL (≈ 8.76 to 35 µM).
`COc1ccc2cc3[n+](cc2c1OCCCOc1ccc(Cl)cc1)CCc1cc2c(cc1-3)OCO2.[Br-]` showed an MIC (Escherichia coli) of 32 to 128 µg/mL, an MIC (Staphylococcus aureus [2]) of 2 to 8 µg/mL and an IC50 [16] of 66.6 µM. For the same compound, the MIC (Enterococcus faecalis [5]) was 4 to 16 µg/mL, the MIC (Klebsiella pneumoniae) was 32 to 128 µg/mL and the MIC (Staphylococcus aureus [6]) was 2 to 8 µg/mL.
Work on `O=C(O)/C=C/c1ccc(O)c(O)c1` [CAFFEIC ACID] yielded an MIC (Escherichia coli) of 32 to 128 µg/mL (≈ 178 to 710 µM), an MIC (Staphylococcus aureus [2]) of 2 to 8 µg/mL (≈ 11.1 to 44.4 µM) and an IC50 [3] of 106 µM. It also gave an MIC (Enterococcus faecalis [5]) of 4 to 16 µg/mL (≈ 22.2 to 88.8 µM), an MIC (Klebsiella pneumoniae) of 32 to 128 µg/mL (≈ 178 to 710 µM) and an MIC (Staphylococcus aureus [6]) of 2 to 8 µg/mL (≈ 11.1 to 44.4 µM).
In the case of `O=c1ccc2cc(CCO)c(O)cc2o1`, the MIC [15] is reported as 60 µg/mL (≈ 291 µM).
`COc1ccc(/C=C/C(=O)O)cc1OC` [O,O'-DIMETHYLCAFFEIC ACID] showed an MIC (Escherichia coli) of 32 to 128 µg/mL (≈ 154 to 615 µM), an MIC (Staphylococcus aureus [2]) of 2 to 8 µg/mL (≈ 9.61 to 38.4 µM) and an IC50 [3] greater than 250 µM. For the same compound, the MIC (Enterococcus faecalis [5]) was 4 to 16 µg/mL (≈ 19.2 to 76.8 µM), the MIC (Klebsiella pneumoniae) was 32 to 128 µg/mL (≈ 154 to 615 µM) and the MIC (Staphylococcus aureus [6]) was 2 to 8 µg/mL (≈ 9.61 to 38.4 µM).
Compound `O=C(O)/C=C/c1ccccc1` [CINNAMIC ACID] has an MIC (Escherichia coli) of 32 to 128 µg/mL (≈ 216 to 864 µM), an MIC (Staphylococcus aureus [2]) of 2 to 8 µg/mL (≈ 13.5 to 54 µM) and an IC50 [3] of 239 µM. It also gave an MIC (Enterococcus faecalis [5]) of 4 to 16 µg/mL (≈ 27 to 108 µM), an MIC (Klebsiella pneumoniae) of 32 to 128 µg/mL (≈ 216 to 864 µM) and an MIC (Staphylococcus aureus [6]) of 2 to 8 µg/mL (≈ 13.5 to 54 µM).
